1 compound from US20160264593A1 (priority 2013, published 2016) can be followed below.

Molecules are shown by their SMILES.

The data set is described as follows: Pharmacokinetic study of 153 (and metabolite endothal) in SD rats, iv and po; plasma, liver, brain. In kind it is in vivo. The note with it: for endothal detectable in brain samples: after single iv 153 at 1.25 mg/kg, 1.25 mg/kg. How it is done: The blood, liver and brain tissue samples were collected at predetermined times from rats. […] Compound were diluted shortly before use in 4% sodium bicarbonate for sterile injection (this is the standard pediatric solution of NaHCO3 with a pH of about 8.5).
Compound 153 was freshly prepared by diluting the drugs shortly before use in 4% sodium bicarbonate for sterile injection (this is the standard pediatric solution of NaHCO3 with a pH of about 8.5). The final concentrations of 153 solutions were 0.25 mg/mL. The 153 solutions were administered via iv or po route at dose volume of 5 ml/kg according to the latest body weight. Compound 157 was freshly prepared by diluting the drugs shortly before use in 4% sodium bicarbonate for sterile injection (this is the standard pediatric solution of NaHCO3 with a pH of about 8.5). The final concentrations of […] solutions were 0.3 mg/mL. The 157 solutions were administered via iv or po route at dose volume of 5 ml/kg according to the latest body weight.
Twelve (12) female SD rats per group were dosed by iv with 153 or 157. The rats were fasted overnight prior to dosing, with free access to water. Foods were withheld for 2 hours post-dose. Blood, liver and brain tissue samples in two animals each group were collected at each time point, within 10% of the scheduled time for each time point. Two extra animals were used for analytic method development.
Blood (>0.3 mL) were collected via aorta abdominalis in anaesthetic animals into tubes containing heparin at 15 min, 1, 2, 6, 10 and 24 hours after iv administration. Liver and brain tissues were collected immediately after animal death. The liver and brain tissues were excised and rinsed with cold saline to avoid blood residual. Upon collection, each sample was placed on ice and the blood samples were subsequently centrifuged (4° C., 11000 rpm, 5 min) to separate plasma. The obtained plasma, liver and brain tissue samples were stored at −70° C. until LC-MS/MS analysis.
Two (2) female SD rats per group were dosed by po with 153 or 157. The rats were fasted overnight prior to dosing, with free access to water. Foods were withheld for 2 hours post-dose. Blood samples (>0.3 mL) were collected via aorta abdominalis in anaesthetic animals into tubes containing heparin at 30 min, 1, 2, 6, 10 and 24 hours after po administration.
To each sample, 20 μL IS-D (for blank samples, 20 μL acetonitrile:water (1:1) was added) and 300 μl acetonitrile was added. The sample mixture was vortexed for approximately 3 min. After centrifugation at 10000 rpm for 5 min at 4° C., 100 μL of the upper layer was transferred to a new tube and added 200 μL 0.4% formic acid in water (pH 6.0). The mixture was vortexed for approximately 3 min before injected onto the LC/MS/MS system for analysis.
On the day of the assay, the frozen liver and brain samples were thawed unassisted at room temperature. An about 200 mg weighed sample of each thawed tissue was placed into a plastic tube with water (0.6 mL) to facilitate homogenization. Tissue processing was conducted using a homogenizer for approximately 1 min, 200 μl homogenate was transferred into a fresh Eppendorf tube. To each tube, 50 μL IS-D was added and mixed. Then 600 μl acetonitrile was added and the sample mixture was vortexed for approximately 3 min. After centrifugation at 10000 rpm for 5 min at 4° C., 400 μL of the upper layer was transferred to a new tube and evaporate the supernatant to dryness at 35° C. Reconstitute the residue with 200 μL of 0.4% formic acid in water (pH6.0), and vortex for 3 min, submit for LC-MS/MS analysis.
Frozen unknown plasma samples were completely thawed at room temperature and vortexed thoroughly. With a pipette, 50 μL of plasma was transferred into a 2.0 mL Eppendorf tube. 50 μL of 0.1N HCl and 800 μL ethyl acetate were added into each sample. The sample mixture was vortexed for approximately 3 min.

For the compound `O=C(O)C1C2CCC(O2)C1C(=O)O` (stereo not drawn) [Endothal, 7-oxabicyclo[2.2.1]heptane-2,3-dicarboxylic acid], the “endothal detectable in brain samples” value is “undetectable”. Besides, the Endothal plasma concentration result (after iv 153, 10 hr, Rat 2) is “BLQ”. The Endothal plasma concentration entry (after iv 153, 24 hr, Rat 1) is listed as “BLQ”. Further, where the note is “after iv 153, 24 hr, Rat 2”, the Endothal plasma concentration entry was “BLQ”. For the same compound, the Endothal plasma concentration entry (after po 153, 10 hr, Rat 1) is on record as “BLQ”. For the setting “listed as endothal”, the “endothal detectable in brain samples” value is recorded as “not detectable”.
